This is an account of results in US8268786B2, “Anti-cancer tocotrienol analogues and associated methods” (First Tech International Limited, priority 2009, dated 2012).

The subject of test [1] is ER-negative human breast cancer cells MDA-MB-231. Description: MTT antiproliferative assay, MDA-MB-231 cells. In kind it is cell-based. The settings on record: for IC50: Homo sapiens; for antiproliferative activity (in words): MDA-MB-231. On the procedure: (§1) For each of the assays performed the compounds were dissolved in aqueous culture media by binding the compounds with bovine serum albumin (BSA).
(§2) An amount of each compound appropriate for the desired final compound concentration was placed in a 1.5 mL screw top glass vial and dissolved in 100 μL of 100% ethanol. Once dissolved, this ethanol/compound solution was added to a small volume of sterile 10% BSA in water and incubated overnight at 37° C. […] Ethanol was added to all treatment media such that the final ethanol concentration was the same in all treatment groups within a given experiment and was always less than 0.1%. Although the examples provided have been described in conjunction with specified amounts of ethanol and other compounds it should be understood that the invention is applicable to embodiments not having those limited concentration.
(§3) The cell growth of MCF7 (Example 24) and MDA-MB-231 (Example 25) cell lines was measured using the MTT assay procedures described above and an MTT assay kit (TACS™, Trevogen®, Inc., Gaithersburg, Md.). After passing the cells for 3-4 times, growing cells were incubated in a 96-well plate at a density of 8×10^3 cells per well, and allowed to attach for 24 hours. Complete growth medium was then replaced with 100 μL of RPMI serum free medium (GIBCO-Invitrogen, NY) containing various doses (20, 10, 5, 2 μM) of the tested compound and the culture continued at 37° C. under 5% CO2. After 96 hours, the incubated cells were treated with MTT solution (10 μL/well) at 37° C. for 4 hours. The color reaction was stopped by the addition of solubilization/stop solution (100 μL/well). The cells continued to be incubated at 37° C. to completely dissolve the formazan product. Absorbance of the samples was determined at 570 nm with an ELISA plate reader (BioTek, VT). Absorbance readings were converted to estimated cell numbers based on a standard curve prepared by plating various concentration of cells, as determined by hemocytometer, and measuring the absorbance of those cells at the start of each experiment. The IC50 value of each compound was calculated using nonlinear regression (curve fit) of log concentration versus the number of cells/well implemented using GraphPad Prism 5.0 program. The procedure was identical for both human breast cancer cell lines MCF7 and MDA-MB-231.

The subject of test [2] is highly malignant+SA mouse mammary epithelial cell line. Description: MTT antiproliferative assay, +SA mouse mammary epithelial cells. In kind it is cell-based. As to the method:
The antiproliferative effects of Compounds 1-21 were tested using 3-(4,5-dimethylthiazol-2-yl)-2,5-diphenyl tetrasolium bromide (MTT) colorimetric assay utilizing cultures of the highly malignant+SA mouse mammary epithelial cell line maintained on serum-free media and containing 10 ng/mL epidermal growth factor (EGF) and 10 μg/mL insulin as mitogens using 24-well culture plates (6 wells/group) by MTT assay.
Cells were then divided into different treatment groups and given fresh control or treatment media every day. In growth inhibition studies, (IC50), +SA cells were treated with various doses of individual tocotrienol or tocotrienol derivatives for 4 days and then the viable cell number was determined using the MTT assay. Optical density of each sample was read at 570 nm on a microplate reader (SpectraCount, Packard BioScience Company, Meriden, Conn.) against a blank prepared from cell-free cultures. The number of cells/well was calculated against a standard curve prepared by plating various concentrations of cells, as determined by hemocytometer, at the start of each experiment. See McIntyre referenced above.
as §1, §2
(Tetrazolium assays rely on reduction of a dye to a coloured formazan, in cell work by metabolically active cells.)

In test [3] the test system is ER-positive human breast cancer cells MCF7. In words: MTT antiproliferative assay, MCF7 cells. Particulars: for IC50: Homo sapiens. In kind it is cell-based. On the procedure: as §1, §2, §3
For test [4], the system named is highly metastatic breast cancer cell line MDA-MB-231. Description: BME Cell Invasion Assay (Boyden chamber, calcein-AM). In kind it is cell-based, human. Particulars: MDA-MB-231, 5 μM. As to the method:
Anti-Invasion Assays were performed to measure the anti-invasive properties of Compounds 1-21 using a 96 well basement membrane extract “BME” Cell Invasion Assay (Cultrex®, Trevogen, Catalog# 3455-096-K) with the highly metastatic breast cancer cell line MDA-MB-231. This assay employs a simplified Boyden Chamber design with a polyethylene terephthalate membrane (8 μm). Detection of cell invasion is quantified using calcein-AM. Cells internalize calcein-AM and intracellular esterases cleave the acetomethylester moiety to generate free calcein. Free calcein fluoresces brightly, and this fluorescence may be used to quantify the number of cells that have invaded across BME. (See Tamilarasan and Borghesani, referenced above)
About […] of basement membrane extract (BME, 1×) coat was added per well. After overnight incubation at 37° C. in a 5% CO2 incubator, 50,000/50 μL of MDA-MB-231 cells in serum free RPMI medium were added to the top chamber of each well, which contained the tested compound at a treatment concentration of 5 μM. About 150 μL of RPMI medium was added to the lower chamber, which contained 10% fetal bovine serum, penicillin/streptomycin, and fibronectin (1 μL/mL) and N-formyl-met-leu-phe (10 nM) as chemoattractants. Cells were allowed to migrate to the lower chamber at 37° C. in a CO2 incubator. After 24 h, the top and bottom chambers were aspirated and washed with a washing buffer solution. About 100 μL of cell dissociation solution/Calcein-AM solution was added to the bottom chamber and incubated for 1 hour at 37° C. in a CO2 incubator. The cells internalized calcein-AM, and the intracellular esterases cleaved the acetomethylester (AM) moiety to generate free calcein. Fluorescence of the samples was determined at 485 nm excitation; 520 nm emissions were measured using a plate reader (BioTek, VT). The numbers of cells that invaded through the BME coat were calculated using a standard curve.
Differences among the various treatment groups were determined by analysis of variance (ANOVA) followed by Dunnett's t-test. Differences were considered to be statistically significant at a value of <0.05, as compared to vehicle treated controls.

The mark [5] stands for this setting: MDA-MB-231, 96 h, read-out: MDA-MB-231 IC50 μM.
Setting [6] is: MCF7, 96 h, read-out: MCF7 IC50 μM.

In general, IC50 refers to the midpoint of a concentration-inhibition curve.

Structures are written as SMILES. Read-outs that look alike come from different tables or passages of the source.

Take `CC(C)=CCC/C(C)=C/CC/C(C)=C/CC[C@]1(C)CCc2cc(OC(=O)NS(=O)(=O)c3ccc(C)cc3)c(C)c(C)c2O1` [Compound 8, (R)-2,7,8-trimethyl-2-((3E,7E)-4,8,12-trimethyltrideca-3,7,11-trienyl)chroman-6-yl tosylcarbamate]: the IC50 in test [1] (setting [5]) was greater than 10 µM; in test [2] (Mus musculus, +SA cell, 96 h) it was 2 µM; in test [3] (setting [6]), 5.1 µM; in test [3] (MCF7, read-out: IC50 values (range)), 5 to 10 µM. Also, the “activity relative to parent γ-tocotrienol (2)” value in test [2] (+SA cells, versus Compound 2) was roughly 2 fold. Also, the “potency relative to parent natural tocotrienol” value in test [3] (MCF7, 4 and 10 versus Compound 1, 8 versus Compound 2) is listed as roughly 3 fold.
For `CC(C)=CCC/C(C)=C/CC/C(C)=C/CC[C@]1(C)CCc2cc(OC(=O)NS(=O)(=O)c3ccc(C)cc3)cc(C)c2O1` [Compound 9, (R)-2,8-dimethyl-2-((3E,7E)-4,8,12-trimethyltrideca-3,7,11-trienyl)chroman-6-yl tosylcarbamate], the IC50 is 6.6 µM in test [1] (setting [5]); 5 to 10 µM in test [1] (MDA-MB-231, read-out: IC50 (range)); greater than 10 µM in test [3] (setting [6]). The “antiproliferative activity (in words)” value in test [1] is recorded as “improved activities”; in test [2] (+SA cells), “activity better than that of its parent tocotrienol”. Besides, the “anti-invasive activity (in words)” value in test [4] is on record as “more active than their natural tocotrienol parent compounds”.
For the compound `CC(C)=CCC/C(C)=C/CC/C(C)=C/CC[C@]1(C)CCc2cc(OC(=O)NCc3ccccc3)c(C)c(C)c2O1` [Compound 17, (R)-2,7,8-trimethyl-2-((3E,7E)-4,8,12-trimethyltrideca-3,7,11-trienyl)chroman-6-yl benzylcarbamate], the IC50 in test [1] (setting [5]) and in test [3] (setting [6]) was greater than 10 µM each time. Also, the “antiproliferative activity (in words)” value in test [1] is “improved activities”. For the same compound, the “anti-invasive activity (in words)” value in test [4] is “more active than their natural tocotrienol parent compounds”.
